In patent US9045421B2, “Reagent and method for detection of carboxylic acids by mass spectrometry” (University of Washington, priority 2010, dated 2015):

Test system: primary human bronchial cells
Assay: Eicosanoid formation in calcium ionophore stimulated primary bronchial epithelial cells (LC/ESI-MSMS of AMPP amides)
Type: cell-based
Conditions: +Ca ionophore (A23187, 10 uM, 20 min, 37° C.); 0.47 million cells per sample
Protocol: The University of Washington Institutional Review Board approved the studies involving human subjects, and written informed consent was obtained from all participants. Primary bronchial epithelial cells were isolated from a volunteer with asthma during bronchoscopy using a nylon cytology brush of cells from subsegmental airways. To establish primary culture, the epithelial cells were seeded into a culture vessel coated with type 1 collagen in bronchial epithelial basal media (BEBM, Lonza, Allendale, N.J.) supplemented with bovine pituitary extract, insulin, hydrocortisone, gentamicin, amphotericin B, fluconazole, retinoic acid, transferrin, triiodothyronine, epinephrine, and human recombinant epidermal growth factor (serum-free BEGM) and maintained at 37° C. in a humidified incubator. After expansion in vitro, passage 2 epithelial cells were grown to >90% confluence on a 12-well plate. The medium was changed to Hanks balanced salt solution, and the cells were treated with either calcium ionophore (A23187, 10 uM) or a DMSO-containing control solution for 20 min at 37° C. In some studies, the cytosolic phospholipase A2-α inhibitor Pyr-2^6 was present at 5 uM, added from a stock solution in DMSO. The synthesis of eicosanoids was stopped by the addition of 4 volumes of ice methanol with 0.2% formic acid. […] The studies were performed in duplicate. Samples were processed for derivatization with AMPP and LC/ESI-MSMS as for the serum samples.

**Q.** Which results are given for `CNc1ccc2oc(C[C@H]3O[C@@]4(CC[C@H]3C)O[C@H]([C@H](C)C(=O)c3ccc[nH]3)[C@H](C)C[C@H]4C)nc2c1C(=O)O` [Ca ionophore]?
**A.** 11(S)-HETE level: 3.7 pg; 15(S)-HETE level: 7.8 pg; Arachidonic acid level: 242 pg; PGD2 level: 4.4 pg; PGE2 level: 39 pg; PGF2α level: 60 pg; TxB2 level: 1.3 pg
